One compound from publication PMC12655527, “An Investigational Study on the Role of ADME Agents’ Genetic Variation on DD217 Pharmacokinetics and Safety Profile” (Pharmaceuticals, 2025) can be followed below.

This data set deals with patients undergoing knee replacement surgery. Kind of data set: Bleeding events during 14-day therapy, phase II trial. To be noted: for Bleeding, n (safety outcomes): 14 days. Type of data set: in vivo, human. From the text: The design, eligibility criteria, and outcomes of the phase II clinical trial evaluating the safety and tolerability of DD217 (NCT05189002, ClinicalTrials.gov) have been described previously. Briefly, this was a multicenter, double-blind, randomized, prospective phase II study designed to determine the optimal dosing regimen and to assess the safety and efficacy of DD217 for the prevention of venous thromboembolism (VTE) in patients undergoing knee replacement surgery. Patients were randomized into one of three groups: two groups received oral DD217 at doses of 40 mg or 60 mg once daily, starting on the morning of the first postoperative day, and one group received the active comparator, dalteparin sodium. The treatment duration was 14 days.
In total, seven cases of DVT/PE were documented during the trial: four in the DD217 40 mg/day group, one in the DD217 60 mg/day group, and two in the dalteparin sodium group. In addition, two bleeding events were recorded: one clinically relevant non-major bleed in the DD217 60 mg/day group and one clinically non-relevant minor bleed in the dalteparin sodium group.

Take `CC(=N)N(C)c1ccc(C(=O)Nc2ccc(C)cc2C(=O)Nc2ccc(Cl)cn2)cc1.Cl` [DD217, N-(5-chloropyridin-2-yl)-5-methyl-2-[4-(N-methylacetimidamido)benzamido]benzamide hydrochloride]: the “Bleeding, n (safety outcomes)” value reads like this: (DD217 40 mg/day oral, of 16 patients) 0 n; (DD217 60 mg/day oral, of 18 patients) 1 n. In addition, the bleeding events entry (DD217 60 mg/day group, clinically relevant non-major bleed) was “one”.
